According to EPA's ToxValDB 9.5 (doi:10.2903/j.efsa.2010.1905):
Values after ≈ are worked out from the molar mass of the structure shown.

Columns and labels:
[1] = system: Anas platyrhynchos; conditions: oral, mortality
[2] = system: Apis mellifera; conditions: acute; oral; unspecified; mortality
[3] = system: Colinus virginianus; conditions: for NOEC: reproduction developmental
[4] = system: Mus musculus; conditions: acute; oral; mortality
[5] = system: Pimephales promelas; conditions: chronic/long-term; duration: 32 days; growth
[6] = system: Rattus norvegicus
[7] = system: Aphidius rhopalosiphi; test: LR50; higher = less toxic; conditions: not reported; mortality
[8] = system: Typhlodromus pyri; test: LR50; higher = less toxic; conditions: not reported; mortality
[9] = system: Cyprinus carpio; conditions: acute; duration: 96 hours; mortality
[10] = system: Daphnia magna; conditions: chronic/long-term; duration: 21 days; reproduction
[11] = system: Neomysis kadiakensis; conditions: chronic/long-term; duration: 28 days; reproduction
[12] = system: Tagia sp.; conditions: acute; duration: 14 days; mortality
[13] = subchronic, duration: 90 days, oral

| SMILES | LD50 ([1]; acute, unspecified) [mg/kg-day] | LC50 ([1]; short-term, feed) [mg/kg-day] | LD50 [2] [µg/piece] | LC50 ([3]; acute, oral, diet, mortality) [mg/kg-day] | LD50 ([3]; acute, oral, mortality) [mg/kg-day] | NOEC [3] [mg/kg-day] | LD50 [4] [mg/kg-day] | NOEC [5] [mg/L] | NOAEL ([6]; chronic, mortality) [mg/kg-day] | NOAEL ([6]; developmental, development) [mg/kg-day] | NOAEL [6, 13] [mg/kg-day] | LR50 [7] [g/ha] | LR50 [8] [g/ha] | LC50 [9] [µg/mL] | NOEC [10] [mg/L] | NOEC [11] [mg/L] | NOAEL ([6]; reproduction developmental, reproduction) [mg/kg-day] | LC50 [12] [mg/kg] |
| --- | --- | --- | --- | --- | --- | --- | --- | --- | --- | --- | --- | --- | --- | --- | --- | --- | --- | --- |
| CCCCOC(=O)[C@@H](C)Oc1ccc(Oc2ccc(C(F)(F)F)cn2)cc1 [Fluazifop-P-butyl] | > 3960 | > 942 | > 200 | > 1070 | > 2000 | 86.8 | > 2000 | 0.077 | 6.72 | 2 | 0.9 | 177 | 5.6 | – | – | – | – | – |
| CCCCOC(=O)C(C)Oc1ccc(Oc2ccc(C(F)(F)F)cn2)cc1 (configuration not stated) [Fluazifop-butyl] | – | – | – | – | – | 3.95 | – | – | – | – | – | – | – | 1.31 (≈ 3.42 µM) | 0.25 | 0.0477 | 6.72 | > 1000 |
| C[C@@H](Oc1ccc(Oc2ccc(C(F)(F)F)cn2)cc1)C(=O)O [Fluazifop-P] | – | – | – | – | – | – | – | 1.46 | – | 2 | 0.9 | – | – | – | – | – | – | – |
